# *1 amine or outer side, *2 acyl side, *3 side chain or, on linkers, in order; H or OH if unused. Where a SMILES comes first, the peptide text is derived from it. Bridges are numbered along the chain shown (N, C = ends). [ ]: non-standard residue; d: D form. The star is where a group is joined. ξ: configuration not given here. X10 = O=C(O)COc1ccc(C[C@H](CC(=O)C[*:2])C(=O)[*:1])cc1; Phe(3-CF3) = N[C@@H](Cc1cccc(C(F)(F)F)c1)C(=O)O; Ala(morpholin-4-yl) = N[C@@H](CN1CCOCC1)C(=O)O; Phe(4-COOH) = N[C@@H](Cc1ccc(C(=O)O)cc1)C(=O)O; Bip = N[C@@H](Cc1ccc(-c2ccccc2)cc1)C(=O)O; Phe(3-Me) = Cc1cccc(C[C@H](N)C(=O)O)c1; NH(CH2)12COOH = O=C(O)CCCCCCCCCCCCN*; ξγGlu = O=C(O)C(CCC(=O)[*:2])N[*:1]; Val(3-OH) = CC(C)(O)[C@H](N)C(=O)O; NHhexadecyl = CCCCCCCCCCCCCCCCN*; 4Pal = N[C@@H](Cc1ccncc1)C(=O)O; Cha = N[C@@H](CC1CCCCC1)C(=O)O; Cit = NC(=O)NCCC[C@H](N)C(=O)O; Ile(3ξ) = CCC(C)[C@H](N)C(=O)O; Thr(3ξ) = CC(O)[C@H](N)C(=O)O; 12Ado = NCCCCCCCCCCCC(=O)O; dDab = NCC[C@@H](N)C(=O)O; Carboxymethyl = O=C(O)C*; NMeA = CN[C@@H](C)C(=O)O; Orn = NCCC[C@H](N)C(=O)O; Aun = NCCCCCCCCCCC(=O)O; Dab = NCC[C@H](N)C(=O)O; AEEA = NCCOCCOCC(=O)O
# Target: T1, PD-1/PD-L1 interaction (PE-labeled human PD-L1-Ig binding to Jurkat cell line over-expressing human PD-1) (Homo sapiens, UniProt Q15116)
# T1 construct: expressed in transfected cells; host or cells: Jurkat
# T1 sequence (Q15116 25-288): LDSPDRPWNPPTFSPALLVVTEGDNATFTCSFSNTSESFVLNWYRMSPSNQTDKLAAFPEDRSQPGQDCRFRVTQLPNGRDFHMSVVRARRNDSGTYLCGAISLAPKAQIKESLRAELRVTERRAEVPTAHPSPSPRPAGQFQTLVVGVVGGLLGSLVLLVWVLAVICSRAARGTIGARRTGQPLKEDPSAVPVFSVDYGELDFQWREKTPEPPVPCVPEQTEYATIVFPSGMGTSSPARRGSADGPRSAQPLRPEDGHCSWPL
# Assay: Jurkat-PD-1 Cell Binding High-Content Screening Assay (CBA)
# Details: Jurkat-hPD-1 cells, PE-labeled PD-L1-Ig 20 nM final; read-out: Jurkat HPD1 PDL1 IC50
# In short: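 In this imaging assay, cells in 10% FCS medium see compound for 2 h at 37 °C and then labeled ligand at 20 nM final for 1 h. Paraformaldehyde fixation, Hoechst 33342 staining and dPBS washes precede image capture.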
row,SMILES,IC50 [nM]
1,CC(=O)NCCCC[C@@H]1NC(=O)[C@H](C(C)(C)O)NC(=O)[C@H](CC2CCCCC2)NC(=O)[C@H](CCN)NC(=O)[C@@H](CC(C)C)NC(=O)[C@H](C)N(C)C(=O)[C@H](CCCNC(N)=O)NC(=O)[C@H](Cc2ccc(-c3ccccc3)cc2)NC(=O)[C@H](Cc2ccc(C(=O)O)cc2)NC(=O)[C@H](Cc2cccc(C(F)(F)F)c2)NC(=O)[C@H](CC(=O)O)NC(=O)[C@H](Cc2ccc(OCC(=O)O)cc2)NC(=O)[C@H](CN2CCOCC2)NC(=O)CSC[C@@H](C(=O)N[C@@H](CCN)C(=O)NCCOCCOCC(=O)NC(CCC(=O)NCCOCCOCC(=O)NCCCCCCCCCCCCC(=O)O)C(=O)O)NC1=O (stereo partly drawn) [Example 1178] ({CH2CO}-[Ala(morpholin-4-yl)]Y(Carboxymethyl)D[Phe(3-CF3)][Phe(4-COOH)][Bip][Cit][NMeA][dL][Dab][Cha][Val(3-OH)]K(Ac)C[Dab][AEEA][ξγGlu][AEEA]-{NH(CH2)12COOH}; thioether N-14),12.4
2,CC(C)C[C@H]1NC(=O)[C@H](C)N(C)C(=O)[C@H](Cc2ccc(OCC(=O)O)cc2)NC(=O)[C@H](Cc2ccc(-c3ccccc3)cc2)NC(=O)[C@H](Cc2ccc(OCC(=O)O)cc2)NC(=O)[C@H](Cc2c[nH]c3ccccc23)NC(=O)[C@H](CC(=O)O)NC(=O)[C@H](Cc2ccncc2)NC(=O)[C@H](Cc2ccc(OCC(=O)O)cc2)NC(=O)CSC[C@@H](C(=O)N[C@@H](CCCN)C(=O)NCCOCCOCC(=O)NCCCCCCCCCCC(=O)O)NC(=O)[C@H]([C@@H](C)O)NC(=O)[C@H](C(C)C)NC(=O)[C@H](CC2CCCCC2)NC(=O)[C@H](CC(N)=O)NC1=O [Example 1379] ({CH2CO}-Y(Carboxymethyl)[4Pal]DWY(Carboxymethyl)[Bip]Y(Carboxymethyl)[NMeA][dL]N[Cha]VTC[Orn][AEEA][Aun]-OH; thioether N-14),175
3,CC(C)C[C@@H]1NC(=O)[C@H](Cc2c[nH]c3ccccc23)NC(=O)[C@H](CC(=O)O)NC(=O)[C@H](Cc2ccc(C(=O)O)cc2)NC(=O)[C@H](Cc2ccc(OCC(=O)O)cc2)NC(=O)CSC[C@@H](C(=O)N[C@@H](CCCN)C(=O)NCCOCCOCC(=O)NCCCCCCCCCCC(=O)O)NC(=O)[C@H](CCCN)NC(=O)[C@H](C(C)C)NC(=O)[C@H](CC2CCCCC2)NC(=O)[C@H](CC(N)=O)NC(=O)[C@@H](CC(C)C)NC(=O)[C@H](C)N(C)C(=O)[C@H](C(C)C)NC(=O)[C@H](Cc2ccc(-c3ccccc3)cc2)NC1=O [Example 2144] ({CH2CO}-Y(Carboxymethyl)[Phe(4-COOH)]DWL[Bip]V[NMeA][dL]N[Cha]V[Orn]C[Orn][AEEA][Aun]-OH; thioether N-14),19.3
4,CCC(C)[C@@H]1NC(=O)[C@H](Cc2ccc(-c3ccccc3)cc2)NC(=O)[C@H](C(C)C)NC(=O)[C@H](Cc2c[nH]c3ccccc23)NC(=O)[C@H](CC(=O)O)NC(=O)[C@H](Cc2ccc(O)cc2)NC(=O)[C@H](Cc2ccncc2)NC(=O)CSC[C@@H](C(=O)N[C@@H](C)C(=O)NCCOCCOCC(=O)N[C@@H](CCCN)C(=O)NCCCCCCCCCCC(=O)O)NC(=O)[C@H](C(C)O)NC(=O)[C@H](C(C)C)NC(=O)[C@H](CC2CCCCC2)NC(=O)[C@H](CCN)NC(=O)[C@@H](CC(C)C)NC(=O)[C@H](C)N(C)C1=O (stereo partly drawn) [Example 2077] ({CH2CO}-[4Pal]YDWV[Bip][Ile(3ξ)][NMeA][dL][Dab][Cha]V[Thr(3ξ)]CA[AEEA][Orn][Aun]-OH; thioether N-14),14.1
5,Cc1cccc(C[C@@H]2NC(=O)[C@H](CC(=O)O)NC(=O)[C@H](Cc3ccc(OCC(=O)O)cc3)NC(=O)[C@H](Cc3ccncc3)NC(=O)CSC[C@@H](C(=O)N[C@@H](CCN)C(=O)NCCCCCCCCCCC(=O)O)NC(=O)[C@H](CO)NC(=O)[C@H](C(C)(C)O)NC(=O)[C@H](CC3CCCCC3)NC(=O)[C@H](CCN)NC(=O)[C@@H](CC(C)C)NC(=O)[C@H](C)N(C)C(=O)[C@H](Cc3ccc(OCC(=O)O)cc3)NC(=O)[C@H](Cc3ccc(-c4ccccc4)cc3)NC(=O)[C@H](Cc3ccc(OCC(=O)O)cc3)NC2=O)c1 [Example 1287] ({CH2CO}-[4Pal]Y(Carboxymethyl)D[Phe(3-Me)]Y(Carboxymethyl)[Bip]Y(Carboxymethyl)[NMeA][dL][Dab][Cha][Val(3-OH)]SC[Dab][Aun]-OH; thioether N-14),9
6,CC(C)C[C@@H]1NC(=O)[C@H](Cc2c[nH]c3ccccc23)NC(=O)[C@H](CC(=O)O)NC(=O)[C@H](Cc2ccc(C(=O)O)cc2)NC(=O)[C@H](Cc2ccc(OCC(=O)O)cc2)NC(=O)CSC[C@@H](C(=O)NCCOCCOCC(=O)NCCCCCCCCCCC(=O)O)NC(=O)[C@H](CCC(=O)O)NC(=O)[C@H](C(C)(C)O)NC(=O)[C@H](CC2CCCCC2)NC(=O)[C@H](CCN)NC(=O)[C@@H](CC(C)C)NC(=O)[C@H](C)N(C)C(=O)[C@H](C(C)C)NC(=O)[C@H](Cc2ccc(-c3ccccc3)cc2)NC1=O [Example 1112] ({CH2CO}-Y(Carboxymethyl)[Phe(4-COOH)]DWL[Bip]V[NMeA][dL][Dab][Cha][Val(3-OH)]EC[AEEA][Aun]-OH; thioether N-14),47.1
7,CC(C)C[C@@H]1NC(=O)[C@H](Cc2c[nH]c3ccccc23)NC(=O)[C@H](CC(=O)O)NC(=O)[C@H](Cc2ccncc2)NC(=O)[C@H](Cc2ccc(OCC(=O)O)cc2)NC(=O)CSC[C@@H](C(=O)NCCOCCOCC(=O)NCCCCCCCCCCC(=O)O)NC(=O)[C@H](CO)NC(=O)[C@H](C(C)C)NC(=O)[C@H](CC2CCCCC2)NC(=O)[C@H](CCN)NC(=O)[C@@H](CC(C)C)NC(=O)[C@H](C)N(C)C(=O)[C@H](C(C)C)NC(=O)[C@H](Cc2ccc(-c3ccccc3)cc2)NC1=O [Example 1081] ({CH2CO}-Y(Carboxymethyl)[4Pal]DWL[Bip]V[NMeA][dL][Dab][Cha]VSC[AEEA][Aun]-OH; thioether N-14),10.1

# Other lines, results leading:
row,IC50 [nM],SMILES
1,24.4,CC(C)C[C@H]1NC(=O)[C@H](C)N(C)C(=O)[C@H](CCC(=O)O)NC(=O)[C@H](Cc2ccc(-c3ccccc3)cc2)NC(=O)[C@H](C(C)C)NC(=O)[C@H](Cc2c[nH]c3ccccc23)NC(=O)[C@H](CC(=O)O)NC(=O)[C@H](Cc2ccc(C(=O)O)cc2)NC(=O)[C@H](Cc2ccc(OCC(=O)O)cc2)NC(=O)CSC[C@@H](C(=O)N[C@@H](CCCCN)C(=O)NCCOCCOCC(=O)NCCCCCCCCCCC(=O)O)NC(=O)[C@H](C(C)O)NC(=O)[C@H](C(C)C)NC(=O)[C@H](CC2CCCCC2)NC(=O)[C@H](CCN)NC1=O (stereo partly drawn) [Example 2108] ({CH2CO}-Y(Carboxymethyl)[Phe(4-COOH)]DWV[Bip]E[NMeA][dL][Dab][Cha]V[Thr(3ξ)]CK[AEEA][Aun]-OH; thioether N-14)
2,113,CC(C)C[C@@H]1NC(=O)[C@H](Cc2c[nH]c3ccccc23)NC(=O)[C@H](CC(=O)O)NC(=O)[C@H](Cc2ccc(OCC(=O)O)cc2)NC(=O)[C@H](Cc2ccccc2)NC(=O)CSC[C@@H](C(=O)N[C@@H](CCN)C(=O)NCCCCCCCCCCC(=O)O)NC(=O)[C@H](CCC(N)=O)NC(=O)[C@H](C(C)C)NC(=O)[C@H](CC(C)C)NC(=O)[C@H](CC(N)=O)NC(=O)[C@@H](CC(C)C)NC(=O)[C@H](C)N(C)C(=O)[C@H](C(C)C)NC(=O)[C@H](Cc2ccc(-c3ccccc3)cc2)NC1=O [Example 1346] ({CH2CO}-FY(Carboxymethyl)DWL[Bip]V[NMeA][dL]NLVQC[Dab][Aun]-OH; thioether N-14)
3,9.5,CC(C)C[C@H]1NC(=O)[C@H](C)N(C)C(=O)[C@H](C(C)C)NC(=O)[C@H](Cc2ccc(-c3ccccc3)cc2)NC(=O)[C@H](C(C)C)NC(=O)[C@H](Cc2c[nH]c3ccccc23)NC(=O)[C@H](CC(=O)O)NC(=O)[C@H](Cc2ccc(OCC(=O)O)cc2)NC(=O)[C@H](C(C)O)NC(=O)CSC[C@@H](C(=O)N[C@H](CC(N)=O)C(=O)NCCOCCOCC(=O)NCCCCCCCCCCCC(=O)O)NC(=O)[C@H](CCCN)NC(=O)[C@H](C(C)C)NC(=O)[C@H](CC2CCCCC2)NC(=O)[C@H](CCN)NC1=O (stereo partly drawn) [Example 2203] ({CH2CO}-[Thr(3ξ)]Y(Carboxymethyl)DWV[Bip]V[NMeA][dL][Dab][Cha]V[Orn]C[dN][AEEA][12Ado]-OH; thioether N-14)

# Same assay, conditions: PE-labeled PD-L1-Ig 20 nM final, Jurkat-hPD-1 cells; read-out: Jurkat HPD1 PDL1 IC50
row,IC50 [nM],SMILES
1,38.9,CCCCCCCCCCCCCCCCNC(=O)CC[C@H](NC(=O)COCCOCCNC(=O)[C@H](CCN)NC(=O)[C@@H]1CSCC(=O)C[C@@H](Cc2ccc(OCC(=O)O)cc2)C(=O)N[C@@H](Cc2ccc(OCC(=O)O)cc2)C(=O)N[C@@H](CC(=O)O)C(=O)N[C@@H](Cc2cccc(C(F)(F)F)c2)C(=O)N[C@@H](Cc2ccc(C(=O)O)cc2)C(=O)N[C@@H](Cc2ccc(-c3ccccc3)cc2)C(=O)N[C@@H](CCC(N)=O)C(=O)N(C)[C@@H](C)C(=O)N[C@H](CC(C)C)C(=O)N[C@@H](CCN)C(=O)N[C@@H](CC2CCCCC2)C(=O)N[C@@H](C(C)(C)O)C(=O)N[C@@H](CCCCNC(C)=O)C(=O)N1)C(=O)O [Example 2641] (Y(Carboxymethyl)D[Phe(3-CF3)][Phe(4-COOH)][Bip]Q[NMeA][dL][Dab][Cha][Val(3-OH)]K(Ac)C[Dab][AEEA]E(NHhexadecyl)-OH; linker N-13 via X10)
2,28.2,CC(=O)NCCCC[C@@H]1NC(=O)[C@H](C(C)(C)O)NC(=O)[C@H](CC2CCCCC2)NC(=O)[C@H](CCN)NC(=O)[C@@H](CC(C)C)NC(=O)[C@H](C)N(C)C(=O)[C@H](CCC(N)=O)NC(=O)[C@H](Cc2ccc(-c3ccccc3)cc2)NC(=O)[C@H](Cc2ccc(C(=O)O)cc2)NC(=O)[C@H](Cc2cccc(C(F)(F)F)c2)NC(=O)[C@H](CC(=O)O)NC(=O)[C@H](Cc2ccc(OCC(=O)O)cc2)NC(=O)[C@H](Cc2ccc(OCC(=O)O)cc2)NC(=O)CSC[C@@H](C(=O)N[C@H](CCN)C(=O)NCCCCCCCCCCCCC(=O)O)NC1=O [Example 2599] ({CH2CO}-Y(Carboxymethyl)Y(Carboxymethyl)D[Phe(3-CF3)][Phe(4-COOH)][Bip]Q[NMeA][dL][Dab][Cha][Val(3-OH)]K(Ac)C[dDab]-{NH(CH2)12COOH}; thioether N-14)
